Relative viability data for 1 cell line are collected here from the supplement of paper PMC10307832.

Common to all, as to test: relative viability (nuclei count vs DMSO), 5 days (fraction); higher = more cells survive
Compound in assay [1]: C#Cc1cccc(Nc2ncnc3cc(OC)c(OCCCCCCC(=O)NO)cc23)c1 [CUDC-101] + CC(C)C[C@H](NC(=O)[C@H](Cc1ccccc1)NC(=O)c1cnccn1)B(O)O [Bortezomib] (partner 0.002 µM)
The method, boiled down: (§1)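 For relative viability, nuclei counts in treated wells were divided by those in vehicle wells. Lung cancer cell lines had been pin-tool dosed in 1536-well plates the day after seeding and cultured for 5 days, then fixed and stained in one step (final 0.05% Triton X-100, 1% formaldehyde, 1 ug/ml Hoechst) and imaged at 4×. Doses were one drug alone or a fixed anchor-drug dose plus five library-drug doses (not always all listed) in √10 steps, and values are duplicate-plate medians.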

Compound in assay [2]: C1=CC=C2C(=C1)N=C(S2)C(C#N)C3=NC(=NC=C3)NCCC4=CN=CC=C4 + Cc1nc(Nc2ncc(C(=O)Nc3c(C)cccc3Cl)s2)cc(N2CCN(CCO)CC2)n1 [Dasatinib] (partner 0.075 µM)
The method, boiled down: as §1

Compound in assay [3]: COc1cc2/c(=N/c3ccc(Br)cc3F)nc[nH]c2cc1OCC1CCN(C)CC1 [Vandetanib] + Cc1nc(NC(=O)N2CCC[C@H]2C(N)=O)sc1-c1ccnc(C(C)(C)C(F)(F)F)c1 [Alpelisib] (partner 2 µM)
The method, boiled down:
as §1

Compound in assay [4]: COc1cc2/c(=N/c3ccc(Br)cc3F)nc[nH]c2cc1OCC1CCN(C)CC1 [Vandetanib] + O=C(c1cc(Cc2n[nH]c(=O)c3ccccc23)ccc1F)N1CCN(C(=O)C2CC2)CC1 [Olaparib] (partner 8 µM)
The method, boiled down: as §1

For UMC-11, the relative viability in assay [1] (first compound 0.01 µM) worked out at 0.918; in assay [1] (first compound 0.03162 µM) it was 0.831; in assay [1] (first compound 0.1 µM) it was 0.468; in assay [1] (first compound 0.3162 µM) it was 0.576; in assay [1] (first compound 1 µM), 0.167; in assay [2] (first compound 0.005 µM) it was 0.257. Moreover, the relative viability in assay [2] (first compound 0.01581 µM) stood at 0.481; in assay [2] (first compound 0.05 µM), 0.447; in assay [2] (first compound 0.1581 µM) it was 0.583; in assay [2] (first compound 0.5 µM), 0.379; in assay [3] (first compound 0.02 µM), 0.897; in assay [3] (first compound 0.06325 µM) it was 0.975. For the same cell line, the relative viability in assay [3] (first compound 0.2 µM) was 0.905; in assay [3] (first compound 0.6325 µM), 0.908; in assay [3] (first compound 2 µM) it was 0.922; in assay [4] (first compound 0.02 µM), 0.707; in assay [4] (first compound 0.06325 µM), 0.35; in assay [4] (first compound 0.2 µM), 0.473. For the same cell line, the relative viability in assay [4] (first compound 0.6325 µM) stood at 0.315; in assay [4] (first compound 2 µM), 0.475.
